This note sets out measurements from PubChem BioAssay (NCI).

Several values for one entry are separate records, joined by “and”; a condition that tells them apart may be missing. Identical values can stand only once.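 Values below derive from 48-hour exposures of cells grown in 96-well plates, with endpoints linearly interpolated between the two concentrations bracketing the appropriate inhibition level. The concentration for 50% growth inhibition is given as GI50. TGI denotes the concentration required for complete inhibition of growth.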

For one experiment, the system named is SF-539 CNS. As to the kind of experiment: NCI-60 cell line screen, 48 h.
As for `Cc1ccc2[nH]c(C(=O)NN3C(=O)CSC34CCCCC4C)c(-c3ccccc3)c2c1` (stereo not drawn), the GI50 was 19.5 µM and the TGI came to 38.4 µM.

For the compound `CN1CCc2c1nc(-c1ccccc1)c1c2N(C)CC1`, the TGI is over 100 µM.

`CCC[CH2][Sn]([CH2]CCC)([O]C(C)=O)[O]C(C)=O`: the GI50 was 1.53 µM and the TGI came out at 3.19 µM.

`COC(=O)CCC(=O)N1Cc2cc(C)ccc2N(C(=O)CCC(=O)OC)Cc2cc(C)ccc21` registered a TGI of over 100 µM.

With `C=C1C(=O)O[C@H]2C[C@@H](C)[C@@H]3CC(=O)OC[C@@]3(C)CC12` (stereo partly drawn), the TGI amounted to 48 µM.

`CCOC(=O)c1c2c(n(CC(C)C)c1C)-c1nc[nH]c1C(=O)C2=O`: the GI50 was 14 µM and the TGI was determined as 26.9 µM.

On to `CCc1ccc(NCc2cc(OC)c(OC)c(OC)c2)cc1`, for which the GI50 was 0.296 µM and 0.107 µM; the TGI was 1.02 µM and 0.814 µM.

In the case of `CS(=O)(=O)CC1=Nc2nnc(CCCCCCCc3nnc4n3C(=O)C(CS(C)(=O)=O)=N4)n2C1=O`, the TGI is over 100 µM.

For `COc1ccccc1[N-]C(C1=C([O-])c2ccccc2C1=O)c1ccccc1.COc1ccccc1[N-]C(C1=C([O-])c2ccccc2C1=O)c1ccccc1.[Cu+2]` (stereo not drawn), the GI50 was 3.82 µM and the TGI was determined as 15.1 µM.

`O=C(NCCCCCCNC(=O)c1cccc2ccccc12)c1cccc2ccccc12`: the TGI turned out to be 35.4 µM.

The compound `COC12C=CC(CC1)c1c(O)ccc(O)c12` (stereo not drawn) had a TGI of over 100 µM.

`CC1=C2CCCC2C/C(=N/Nc2ccc([N+](=O)[O-])cc2[N+](=O)[O-])CC1` (stereo not drawn): the TGI was over 100 µM.

For the compound `COc1cc2cc(Oc3ccc(NC(=O)Nc4ccc(Cl)c(C(F)(F)F)c4)cc3)c(C)nc2cc1OCCN1CCCCC1`, the GI50 was 1.58 µM and the TGI was found to be 2.94 µM.

On to `CC1CC2C(=O)NC(=O)C2c2[nH]c3ccccc3c21` (stereo not drawn), for which the TGI was over 100 µM.

Take `CC1=CC(=O)c2c(O)cccc2C1=O`: the TGI was 3.92 µM.

`Cc1ccc2c(c1)C1(C)OC(CC(N)C1O)O2` (stereo not drawn): the TGI is over 100 µM.

`COC(=O)[C@@H]1CSC(=S)N1C(=O)C[C@H]1CC=CC[C@H]1CC(=O)Sc1ccccc1` yielded a TGI of 32.1 µM.

In turn, `CC1(Sc2ccccc2)CN(Cc2ccccc2)C1=O` (stereo not drawn) returned a TGI of over 100 µM.

Take `O=C(CCN1CCCC1)Nc1ccc2c(NCc3ccc(F)cc3)c3ccccc3nc2c1`: the GI50 is 0.443 µM and the TGI amounted to 1.63 µM.

`C=C1C(=O)OC2CC3(C)C=CC(=O)C(=C)C3CC12` (stereo not drawn) gave a TGI of 3.97 µM.

For `CCOP(=O)(OCC)C1CCCCOC1=O` (stereo not drawn), the TGI is over 100 µM.

Regarding `N#CC(C#N)=Cc1ccc(-c2ccc(-c3nc4ccccc4s3)cc2)o1`, the GI50 was 11.2 µM and the TGI is 26.7 µM.

As for `O=C1C(Cl)=C(N/N=c2/[nH][nH]/c(=N/NC3=C(Cl)C(=O)c4ccccc4C3=O)c3ccccc23)C(=O)c2ccccc21`, the GI50 was 15.6 µM and the TGI came out at 31.7 µM.

For the next experiment, the system named is SK-OV-3 ovarian. As to the kind of experiment: NCI-60 cell line screen, 48 h.
`CN(C)c1ccc2c(NCCCCCCNc3ccnc4cc(N(C)C)ccc34)ccnc2c1` returned a TGI of over 100 µM.

Compound `Nc1cc(=O)[nH]c(SC2=NC(N)CC(O)C2)n1` (stereo not drawn) yielded a TGI of over 100 µM.

For `CC(=O)[O][Pb]([O]C(C)=O)([c]1ccccc1)[c]1ccccc1`, the GI50 was 28.1 µM and the TGI was over 100 µM.

On to `Cc1ccc2[nH]c(C(=O)NN3C(=O)CSC34CCCCC4C)c(-c3ccccc3)c2c1` (stereo not drawn), for which the GI50 is 21.4 µM and the TGI is 47.1 µM.

In turn, `CN1CCc2c1nc(-c1ccccc1)c1c2N(C)CC1` had a TGI of over 100 µM.

Take `CCC[CH2][Sn]([CH2]CCC)([O]C(C)=O)[O]C(C)=O`: the GI50 is 1.93 µM and the TGI was found to be 3.95 µM.

In turn, `COC(=O)CCC(=O)N1Cc2cc(C)ccc2N(C(=O)CCC(=O)OC)Cc2cc(C)ccc21` gave a TGI of over 100 µM.

In turn, `C=C1C(=O)O[C@H]2C[C@@H](C)[C@@H]3CC(=O)OC[C@@]3(C)CC12` (stereo partly drawn) yielded a TGI of over 100 µM.

For `CCOC(=O)c1c2c(n(CC(C)C)c1C)-c1nc[nH]c1C(=O)C2=O`, the GI50 is 22.4 µM and the TGI came to 37.3 µM.

As to `CCc1ccc(NCc2cc(OC)c(OC)c(OC)c2)cc1`, the GI50 is 0.315 µM and 0.152 µM; the TGI is 9.02 µM and 16.9 µM.

Regarding `CS(=O)(=O)CC1=Nc2nnc(CCCCCCCc3nnc4n3C(=O)C(CS(C)(=O)=O)=N4)n2C1=O`, the TGI is over 100 µM.

Consider `COc1ccccc1[N-]C(C1=C([O-])c2ccccc2C1=O)c1ccccc1.COc1ccccc1[N-]C(C1=C([O-])c2ccccc2C1=O)c1ccccc1.[Cu+2]` (stereo not drawn), for which the GI50 was 2.09 µM and the TGI is 6.57 µM.

`O=C(NCCCCCCNC(=O)c1cccc2ccccc12)c1cccc2ccccc12` had a TGI of 56.9 µM.

The compound `COC12C=CC(CC1)c1c(O)ccc(O)c12` (stereo not drawn) registered a TGI of over 100 µM.

`CC1=C2CCCC2C/C(=N/Nc2ccc([N+](=O)[O-])cc2[N+](=O)[O-])CC1` (stereo not drawn) displayed a TGI of over 100 µM.

As for `COc1cc2cc(Oc3ccc(NC(=O)Nc4ccc(Cl)c(C(F)(F)F)c4)cc3)c(C)nc2cc1OCCN1CCCCC1`, the GI50 is 2.28 µM and the TGI was determined as 3.93 µM.

With `CC1CC2C(=O)NC(=O)C2c2[nH]c3ccccc3c21` (stereo not drawn), the TGI is over 100 µM.

For the compound `CC1=CC(=O)c2c(O)cccc2C1=O`, the TGI was found to be 27.2 µM.

Compound `Cc1ccc2c(c1)C1(C)OC(CC(N)C1O)O2` (stereo not drawn) displayed a TGI of over 100 µM.

The compound `COC(=O)[C@@H]1CSC(=S)N1C(=O)C[C@H]1CC=CC[C@H]1CC(=O)Sc1ccccc1` had a TGI of 50 µM.

For `CC1(Sc2ccccc2)CN(Cc2ccccc2)C1=O` (stereo not drawn), the TGI is over 100 µM.

Consider `O=C(CCN1CCCC1)Nc1ccc2c(NCc3ccc(F)cc3)c3ccccc3nc2c1`, for which the GI50 was 0.849 µM and the TGI is 3.5 µM.

Compound `C=C1C(=O)OC2CC3(C)C=CC(=O)C(=C)C3CC12` (stereo not drawn) yielded a TGI of 42.1 µM.

Consider `CCOP(=O)(OCC)C1CCCCOC1=O` (stereo not drawn), for which the TGI was over 100 µM.

Consider `N#CC(C#N)=Cc1ccc(-c2ccc(-c3nc4ccccc4s3)cc2)o1`, for which the GI50 is 10 µM and the TGI was 35.4 µM.

In the case of `O=C1C(Cl)=C(N/N=c2/[nH][nH]/c(=N/NC3=C(Cl)C(=O)c4ccccc4C3=O)c3ccccc23)C(=O)c2ccccc21`, the GI50 is 15.3 µM and the TGI worked out at 29.5 µM.
